{"source": "patent US5349127A", "about": "“Expression of herbicide metabolizing cytochromes P450” (priority 1992, dated 1994)", "assay_in_all_cases": "Percent conversion of non-sulfonylurea herbicides (Example 29)", "key": {"[1]": {"tested_on": "S. griseolus ATCC11796", "assay_type": "in vitro ADME, Streptomyces griseolus", "conditions": "3.0 mg herbicide in 25 ml broth; 18 hours", "experimental": "(§1) This experiment was performed as in Example 17 with the following changes. Separate cultures (50 ml) inoculated with S. lividans C37, S. lividans transformed with pCAO200SU1-FeS-B#9, or S. griseolus ATCC11796 were cultured in sporulation broth for 18 hours at 30° C. with shaking. Each culture was then resuspended in 25 ml fresh sporulation broth and 3.0 mg herbicide added. Each culture was reincubated for 18 hours, then an aliquot of the medium was withdrawn and analyzed by HPLC. The percent conversion of herbicide was determined."}, "[2]": {"tested_on": "S. lividans C37", "assay_type": "in vitro ADME, Streptomyces lividans", "conditions": "3.0 mg herbicide in 25 ml broth; 18 hours", "experimental": "as §1"}, "[3]": {"tested_on": "S. lividans pCAO200SU1-FeS-B#9", "assay_type": "in vitro ADME, Streptomyces lividans", "experimental": "as §1"}}, "data": [{"smiles": "CCc1cnc(C2=NC(C)(C(C)C)C(=O)N2)c(C(=O)O)c1", "note": "(stereo not shown) [compound 10034]", "values": [{"measurement": "Percent Conversion", "setting": "[1]", "result": 13, "unit": "%"}, {"measurement": "Percent Conversion", "setting": "[2]", "result": 10, "unit": "%"}, {"measurement": "Percent Conversion", "setting": "[3]; 3.0 mg herbicide in 25 ml broth, 18 hours", "result": 69, "unit": "%"}, {"measurement": "metabolism by bacteria containing constitutively expressed P450SU1", "setting": "[3]; summary of Table 29", "result": "metabolized"}]}]}
